Where two headings read alike, the source gives them in different places. Bounds are passed on as bounds.

Data set [1] concerns the target T1, recombinant human GST-SYK (Homo sapiens, UniProt P43405).
T1 construct: purchased Carna Biosciences 08-176
The data set is described as follows: Homogeneous Time-Resolved Fluorescence (HTRF) assay for the recombinant human Syk enzyme. The data set is classed as biochemical. The settings on record: 5 pM GST-SYK, 25 μM ATP, 10-dose titration. The procedure:
Biological Assay Homogeneous Time-Resolved Fluorescence (HTRF) Assay for the Recombinant Human Syk Enzyme
A recombinant GST-hSYK fusion protein was used to measure potency of compounds to inhibit human Syk activity. […] Final volume of the reaction was 10 μL. Phosphorylation of the peptide was allowed to proceed for 45′ at room temperature. To quench the reaction and detect the phosphorylated product, 2 nM of a Europium-anti-phosphotyrosine antibody (Perkin Elmer #AD0161) and 70 nM SA-APC (Perkin-Elmer #CR130-100) were added together in 15 mM Tris pH 7.5, 40 mM EDTA, 0.01% tween 20. Final volume of the quenching solution was 10 μL. The resulting HTRF signal was measured after 30 minutes on an EnVision (Perkin-Elmer) reader using a time-resolved fluorescence protocol.

Data set [2] deals with allergic rhinitis. The settings on record: dosed intranasally, phase I/II study; cited from earlier work.
Data set [3] has as its system allergic rhinitis. The settings on record: phase II clinical trial; cited from earlier work.

Take `Cc1cc(C)nc(Nc2cc(NCC(N)C(F)(F)F)ncc2C(N)=O)c1` (racemic) [Example 2.3, 6-[(2-amino-3,3,3-trifluoropropyl)amino]-4-[(4,6-dimethylpyridin-2-yl)amino]pyridine-3-carboxamide]: the IC50 in data set [1] (read-out: IC50) was 3.5 µM; in data set [1] (read-out: rhSYK Activity), 1 to 10 µM.

Consider `Cc1cc(C)nc(Nc2cc(NCC3(N)CCOC3)ncc2C(N)=O)c1` (racemic) [Example 2.6, 6-{[(3-aminotetrahydrofuran-3-yl)methyl]amino}-4-[(4,6-dimethylpyridin-2-yl)amino]pyridine-3-carboxamide], for which the IC50 in data set [1] (read-out: rhSYK Activity) lay within 1 to 10 µM.

Regarding `CCC(C)(N)CNc1cc(Nc2cccc(C)n2)c(C(N)=O)cn1` (racemic) [Example 2.9, 6-[(2-amino-2-methylbutyl)amino]-4-[(6-methylpyridin-2-yl)amino]pyridine-3-carboxamide], the IC50 in data set [1] (read-out: rhSYK Activity) was in the range of 0.1 to 1 µM.

Consider `Cc1cc(C)nc(Nc2cc(NC(C)CN)ncc2C(N)=O)c1` (racemic) [Example 2.10, 6-[(2-amino-1-methylethyl)amino]-4-[(4,6-dimethylpyridin-2-yl)amino]pyridine-3-carboxamide], for which the IC50 was 3.2 µM in data set [1] (read-out: IC50) and 1 to 10 µM in data set [1] (read-out: rhSYK Activity).

Take `CCCC(N)CNc1cc(Nc2cccc(C)n2)c(C(N)=O)cn1` (racemic) [Example 2.11, 6-[(2-aminopentyl)amino]-4-[(6-methylpyridin-2-yl)amino]pyridine-3-carboxamide]: the IC50 in data set [1] (read-out: rhSYK Activity) lay within 0.01 to 0.1 µM.

For the molecule `Cc1cccc(Nc2cc(NCC(N)C3CC3)ncc2C(N)=O)n1` (racemic) [Example 2.12, 6-[(2-amino-2-cyclopropylethyl)amino]-4-[(6-methylpyridin-2-yl)amino]pyridine-3-carboxamide], the IC50 in data set [1] (read-out: rhSYK Activity) was 0.1 to 1 µM.

For `Cc1cc(C)nc(Nc2cc(N[C@@H]3COC[C@H]3N)ncc2C(N)=O)c1` (relative stereo) [Example 2.4, rel-6-{[(3S,4S)-4-aminotetrahydrofuran-3-yl]amino}-4-[(4,6-dimethylpyridin-2-yl)amino]pyridine-3-carboxamide], the IC50 in data set [1] (read-out: rhSYK Activity) fell in the range of 1 to 10 µM.

`Cc1cccc(Nc2cc(N[C@@H]3CCCC[C@H]3N)ncc2C(N)=O)n1` (relative stereo) [Example 2.8, rel-6-{[(1R,2R)-2-aminocyclohexyl]amino}-4-[(6-methylpyridin-2-yl)amino]pyridine-3-carboxamide]: in data set [1] (read-out: rhSYK Activity), the IC50 lay within 0.1 to 1 µM.

As for `NC(=O)c1cnc(N[C@@H]2CCCC[C@@H]2N)cc1Nc1cccc(C(F)(F)F)n1` [Example 1.1, 6-{[(1R,2S)-2-aminocyclohexyl]amino}-4-{[6-(trifluoromethyl)pyridin-2-yl]amino}pyridine-3-carboxamide], the values for the IC50 in data set [1] (read-out: IC50) and in data set [1] (read-out: rhSYK Activity) were 0.0035 µM and less than 0.01 µM, respectively.

Consider `Cc1cccc(Nc2cc(N[C@@H]3CCCC[C@@H]3N)ncc2C(N)=O)n1` [Example 1.2, 6-{[(1R,2S)-2-aminocyclohexyl]amino}-4-[(6-methylpyridin-2-yl)amino]pyridine-3-carboxamide], for which the IC50 was 0.0045 µM in data set [1] (read-out: IC50) and 0.01 to 0.1 µM in data set [1] (read-out: rhSYK Activity).

Take `Cc1cccc(Nc2cc(NCCN)ncc2C(N)=O)n1` [Example 1.3, 6-[(2-aminoethyl)amino]-4-[(6-methylpyridin-2-yl)amino]pyridine-3-carboxamide]: the IC50 in data set [1] (read-out: IC50) was 0.17 µM; in data set [1] (read-out: rhSYK Activity), 0.1 to 1 µM.

For `NC(=O)c1cnc(N[C@@H]2CCCC[C@@H]2N)cc1Nc1cccc(-n2nccn2)n1` [Example 1.4, 6-{[(1R,2S)-2-aminocyclohexyl]amino}-4-{[6-(2H-1,2,3-triazol-2-yl)pyridin-2-yl]amino}pyridine-3-carboxamide], the IC50 in data set [1] (read-out: rhSYK Activity) is less than 0.01 µM.

As for `NC(=O)c1cnc(N[C@@H]2CCCC[C@@H]2N)cc1Nc1ccc2ccccc2n1` [Example 1.6, 6-{[(1R,2S)-2-aminocyclohexyl]amino}-4-(quinolin-2-ylamino)pyridine-3-carboxamide], the results for the IC50 in data set [1] (read-out: IC50) and in data set [1] (read-out: rhSYK Activity) were 0.0058 µM and less than 0.01 µM, respectively.

As for `Cc1nc(Nc2cc(N[C@@H]3CCCC[C@@H]3N)ncc2C(N)=O)ccc1F` [Example 1.7, 6-{[(1R,2S)-2-aminocyclohexyl]amino}-4-[(5-fluoro-6-methylpyridin-2-yl)amino]pyridine-3-carboxamide], the IC50 in data set [1] (read-out: rhSYK Activity) lay in the range of 0.01 to 0.1 µM.

Regarding `C[C@H](N)CNc1cc(Nc2cc(-c3cnn(C)c3)cc(-c3cnn(C)c3)n2)c(C(N)=O)cn1` [Example 1.8, 6-{[(2S)-2-aminopropyl]amino}-4-{[4,6-bis(1-methyl-1H-pyrazol-4-yl)pyridin-2-yl]amino}pyridine-3-carboxamide], the IC50 in data set [1] (read-out: rhSYK Activity) is less than 0.01 µM.

As to `Cc1nc(Nc2cc(NC[C@H](C)N)ncc2C(N)=O)ccc1-c1cnn(C)c1` [Example 1.9, 6-{[(2S)-2-aminopropyl]amino}-4-{[6-methyl-5-(1-methyl-1H-pyrazol-4-yl)pyridin-2-yl]amino}pyridine-3-carboxamide], the IC50 in data set [1] (read-out: rhSYK Activity) was less than 0.01 µM.

Take `CCC(N)CNc1cc(Nc2cccc(C)n2)c(C(N)=O)cn1` (centres unmarked) [Example 2.1, 6-[(2-aminobutyl)amino]-4-[(6-methylpyridin-2-yl)amino]pyridine-3-carboxamide]: the IC50 in data set [1] (read-out: rhSYK Activity) fell in the range of 0.1 to 1 µM.

As to `Cc1cc(C)nc(Nc2cc(NCCN)ncc2C(N)=O)c1` [Example 2.2, 6-[(2-aminoethyl)amino]-4-[(4,6-dimethylpyridin-2-yl)amino]pyridine-3-carboxamide], the IC50 in data set [1] (read-out: rhSYK Activity) lay within 0.01 to 0.1 µM.

As to `Cc1cc(C)nc(Nc2cc(NCC3(N)CCOCC3)ncc2C(N)=O)c1` [Example 2.5], the IC50 in data set [1] (read-out: rhSYK Activity) was in the range of 1 to 10 µM.

In the case of `COC[C@H](N)CNc1cc(Nc2cccc(C)n2)c(C(N)=O)cn1` [Example 2.7, 6-{[(2R)-2-amino-3-methoxypropyl]amino}-4-[(6-methylpyridin-2-yl)amino]pyridine-3-carboxamide], the IC50 in data set [1] (read-out: rhSYK Activity) was in the range of 0.1 to 1 µM.

Take `Cc1nc(Nc2cc(NCCN)ncc2C(N)=O)ccc1Br` [Example 2.13, 6-[(2-aminoethyl)amino]-4-[(5-bromo-6-methylpyridin-2-yl)amino]pyridine-3-carboxamide]: the IC50 in data set [1] (read-out: IC50) was 0.066 µM; in data set [1] (read-out: rhSYK Activity), 0.01 to 0.1 µM.

As for `Cc1cc(C)nc(Nc2cc(NC[C@H](C)N)ncc2C(N)=O)c1` [Example 3.1, 6-{[(2S)-2-aminopropyl]amino}-4-[(4,6-dimethylpyridin-2-yl)amino]pyridine-3-carboxamide], in data set [1] (read-out: rhSYK Activity), the IC50 was in the range of 0.01 to 0.1 µM.

Turning to `Cc1cc(C)nc(Nc2cc(N[C@@H]3[C@H](N)CCCC3(F)F)ncc2C(N)=O)c1` [Example 3.2, 6-{[(1R,6R)-6-amino-2,2-difluorocyclohexyl]amino}-4-[(4,6-dimethylpyridin-2-yl)amino]pyridine-3-carboxamide], the figures for the IC50 in data set [1] (read-out: IC50) and in data set [1] (read-out: rhSYK Activity) were 0.51 µM and 0.1 to 1 µM, respectively.

As to `Cc1cc(C)nc(Nc2cc(N[C@H]3[C@@H](N)CCCC3(F)F)ncc2C(N)=O)c1` [Example 3.3, 6-{[(1S,6S)-6-amino-2,2-difluorocyclohexyl]amino}-4-[(4,6-dimethylpyridin-2-yl)amino]pyridine-3-carboxamide], the IC50 in data set [1] (read-out: rhSYK Activity) fell in the range of 0.01 to 0.1 µM.

As for `Oc1cccc(Nc2ncc(F)c(Nc3cccc(O)c3)n2)c1` [Example R112], in the data set on allergic rhinitis [2], the PGD2 entry is recorded as “statistically significant decrease” and the clinical safety result is “safe across a range of indicators”. Also, in the data set on allergic rhinitis [3], the efficacy versus placebo entry was “lack of efficacy versus placebo”.

Values taken from US8987456B2, “3-pyridyl carboxamide-containing spleen tyrosine kinase (SYK) inhibitors” (Merck Sharp & Dohme Corp., priority 2011, dated 2015).
